Assay results as given in PubChem BioAssay (NCI).
Where “and” joins values, the source holds several entries; their conditions need not be identical. Equal values may be shown once.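 Tested at 5 concentrations; 48 h exposure; 96-well plates; endpoints linearly interpolated, else capped at highest concentration. GI50 marks 50% less growth. TGI: concentration producing complete growth inhibition.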 Where a SMILES comes first, the peptide text is derived from it. [ ]: non-standard residue; d: D form. pGlu = O=C1CC[CH](C(=O)O)N1

Key:
Experiment in all cases: inhibition of tumour cell growth, NCI panel, 48 h
[1] = tested on: CAKI-1 renal
[2] = tested on: EKVX NSCLC
[3] = tested on: IGROV1 ovarian
[4] = tested on: MALME-3M melanoma
[5] = tested on: OVCAR-5 ovarian
[6] = tested on: OVCAR-8 ovarian
[7] = tested on: SF-268 CNS
[8] = tested on: TK-10 renal
[9] = tested on: UACC-257 melanoma
[10] = tested on: UO-31 renal

Structure (SMILES)	TGI [1] [µM]	TGI [2] [µM]	TGI [3]	TGI [4] [µM]	TGI [5]	TGI [6]	TGI [7]	TGI [8] [µM]	TGI [9]	TGI [10]	GI50 [3] [µM]	GI50 [4] [µM]	GI50 [5] [µM]	GI50 [6] [µM]	GI50 [7] [µM]	GI50 [10] [µM]
CC1(C)O[C@H]2OC(CO)C(OS(C)(=O)=O)[C@H]2O1 (some centres not stated)	> 100	> 100	> 100 µM	> 100	> 100 µM	> 100 µM	> 100 µM	> 100	> 100 µM	> 100 µM	–	–	–	–	–	–
O=C(Cc1ccccc1)N=Nc1c(O)[nH]c2ccccc12	–	> 100	> 100 µM	> 100	> 100 µM	> 100 µM	70.7 µM	> 100	> 100 µM	> 100 µM	–	–	–	–	–	–
O=C(O)CN(CC(=O)O)Cc1ccn(-c2cccc(-n3ccc(CN(CC(=O)O)CC(=O)O)n3)n2)n1	> 100	> 100	> 100 µM	> 100	> 100 µM	> 100 µM	> 100 µM	> 100	> 100 µM	> 100 µM	–	–	–	–	–	–
COc1ccc(S(=O)(=O)Nc2ccc(-c3csc(N4C(=O)/C(=C/c5ccccc5)N=C4c4ccccc4)n3)cc2)cc1Cl	> 100	–	> 100 µM	> 100	> 100 µM	> 100 µM	> 100 µM	> 100	> 100 µM	34.1 µM	–	–	–	–	–	–
O=C1c2ccccc2-c2nnc(-c3ccc(Cl)cc3)cc21	> 10	> 10	> 10 µM	> 10	> 10 µM	> 10 µM	> 10 µM	–	> 10 µM	> 10 µM	–	–	–	–	–	–
O=C1C2=C(CCCCC2)C2CCCCC12O (configuration not stated)	–	> 100	> 100 µM	> 100	–	> 100 µM	> 100 µM	> 100	> 100 µM	> 100 µM	–	–	–	–	–	–
Cn1c(N=[N+]=[N-])cc(=O)n(C)c1=O	> 100	> 100	> 100 µM	> 100	> 100 µM	> 100 µM	> 100 µM	> 100	> 100 µM	> 100 µM	–	–	–	–	–	–
O=[N+]([O-])c1ccc2nc(/C=C(\O)c3ccccc3)c(/C=C(\O)c3ccccc3)nc2c1	> 79	> 100	> 56.4 µM	> 100	> 100 µM	42 µM	53.4 µM	63	> 100 µM	31.6 µM	–	–	–	–	–	–
Cc1oncc1NC1=CC(=O)C(=O)c2ccccc21	22.6	32.5	11.8 µM	8.69	26.5 µM	11.9 µM	30.3 µM	45.2	9.34 µM	27.9 µM	–	–	–	–	–	–
COc1ccc(NCc2cnc3nc(N)nc(N)c3c2C)cc1	> 100	> 100	> 100 µM	> 100	> 100 µM	–	> 100 µM	> 100	> 100 µM	> 100 µM	–	–	–	–	–	–
CC(=O)Nc1ccc(-c2nnc(SCC(=O)Nc3cccc([N+](=O)[O-])c3)o2)cc1	55.8	–	31.4 µM	23.9	50.2 µM	33.4 µM	31.7 µM	67.5	51.4 µM	39.8 µM	–	–	–	–	–	–
COC12OC3CC4(C)C(=CC3OC(OC(C)C1O)C2O)CCC1C4CCC2(C)C(c3ccc(=O)oc3)CCC12O (configuration not stated)	0.00849	< 0.001	0.00389 µM	0.00391	0.00327 µM	0.00318 µM	0.00157 µM	0.00216	0.0117 µM	0.00457 µM	–	–	–	–	–	–
CCCCCCCCCCCCCCCCCCOc1ccc(/C=C/C2=[N+](CCCl)CCO2)cc1	> 100	> 100	> 100 µM	> 100	> 100 µM	> 100 µM	–	> 100	> 100 µM	> 100 µM	–	–	–	–	–	–
CNc1ncnc2c1nnn2C	> 100	> 100	> 100 µM	> 100	–	> 100 µM	–	> 100	> 100 µM	> 100 µM	–	–	–	–	–	–
C[C@H](CN1CC(=O)NC(=O)C1)N1CC(=O)NC(=O)C1	> 100	> 100	> 100 µM	> 100	> 100 µM	> 100 µM	> 100 µM	–	> 100 µM	> 44.1 µM	–	–	–	–	–	–
NC(=O)CCC(NC(=O)c1cccc2c(=O)c3ccccc3[nH]c12)C(=O)O (configuration not stated)	–	> 100	> 100 µM	> 100	> 100 µM	> 100 µM	> 100 µM	> 100	–	> 100 µM	–	–	–	–	–	–
COc1nc2ccc(CNc3ccc(C(=O)O)cc3)cc2nc1OC	> 10	> 10	> 10 µM	> 10	> 10 µM	> 10 µM	> 10 µM	> 10	> 10 µM	–	–	–	–	–	–	–
COc1cc2c(cc1OC(=O)c1cc3ccccc3[nH]1)N=C[C@@H]1CCCN1C2=O	13.8	3.2	> 39.6 µM	2.24	0.59 µM	–	> 22.2 µM	13.8	0.691 µM	–	–	–	–	–	–	–
c1ccc(CCN2CCN=C2Cc2ccccc2)cc1	–	> 100	> 100 µM	> 100	> 100 µM	> 100 µM	> 100 µM	> 100	> 100 µM	> 100 µM	–	–	–	–	–	–
Clc1ccc2nc(CC3CCCC3)[nH]c2c1	27.6	43.5	19 µM	45.1	67.5 µM	> 100 µM	40.2 µM	70.2	> 100 µM	–	–	–	–	–	–	–
CCCCCCCC(=O)OCC(C[As](=O)(O)O)OC(=O)CCCCCCC (configuration not stated)	–	33.8	26.9 µM	28.5	–	30.3 µM	28.7 µM	–	28.1 µM	28.2 µM	–	–	–	–	–	–
Nc1nn(CC(O)CO)c(=O)s1 (configuration not stated)	–	> 100	> 100 µM	> 100	> 100 µM	> 100 µM	> 100 µM	> 100	> 100 µM	> 100 µM	–	–	–	–	–	–

Structure (SMILES)	TGI [1] [µM]	TGI [2] [µM]	TGI [3]	TGI [4] [µM]	TGI [5]	TGI [6]	TGI [7]	TGI [8] [µM]	TGI [9]	TGI [10]	GI50 [3] [µM]	GI50 [4] [µM]	GI50 [5] [µM]	GI50 [6] [µM]	GI50 [7] [µM]	GI50 [10] [µM]
Cc1c(O)c(=O)ccn1CCc1c[nH]c2ccccc12	7.25	91.7	–	55.4	> 100 µM	73.6 µM	8.77 µM	> 100	15.5 µM	–	–	–	–	–	–	–
COC(=O)c1c(O)ccc2c1c1c(n2Cc2ccccc2OC)C(=O)c2ccccc2C1	> 100	–	> 100 µM	> 100	–	> 100 µM	> 100 µM	> 100	> 100 µM	> 100 µM	–	–	–	–	–	–
C=CC[N+](CCO)(CCO)CCCCCCCCCCCCCCCCCC	17.9	47.7	3.78 µM	31.1	31.5 µM	59.5 µM	13.3 µM	–	17.2 µM	31.4 µM	–	–	–	–	–	–
COc1cc(/C=C2\N=C(C)N(n3c(-c4ccccc4)nc4ccccc4c3=O)C2=O)cc(OC)c1OC	> 100	> 100	> 100 µM	> 100	–	> 100 µM	> 100 µM	> 100	> 100 µM	> 100 µM	–	–	–	–	–	–
COc1c(-c2cccs2)oc2c(CC(=O)O)cccc2c1=O	> 100	> 100	> 100 µM	> 100	> 100 µM	–	–	> 100	> 100 µM	48.9 µM	–	–	–	–	–	–
CC(NC(=O)C(Cc1cnc[nH]1)NC(=O)C1CCC(=O)N1)C(N)=O (stereo not drawn) ([pGlu]-His-Ala-NH2; configuration not given here)	–	> 100	> 100 µM	> 100	> 100 µM	> 100 µM	> 100 µM	> 100	–	> 100 µM	–	–	–	–	–	–
N/C(=N\N=C\c1cc2c(cc1Cl)OCO2)NO	> 100	> 100	> 100 µM	> 100	> 61.5 µM	> 100 µM	> 100 µM	–	> 100 µM	64.2 µM	–	–	–	–	–	–
CCOC(=O)c1nc2cc(C(F)(F)F)ccc2nc1Nc1ccc(F)cc1	> 100	> 100	> 100 µM	> 100	> 100 µM	> 100 µM	> 100 µM	> 100	> 100 µM	–	–	–	–	–	–	–
CN(C)CCCNc1cnc2cc3ccccc3cc2n1	74.4	> 100	31.8 µM	44.5	81.9 µM	59.4 µM	77.1 µM	78.2	42.5 µM	–	–	–	–	–	–	–
COc1ccc(/C=N\NC(=O)Nc2cccc3ccccc23)cc1	35.3	95.2	> 100 µM	> 100	> 100 µM	–	> 100 µM	43.9	> 100 µM	> 100 µM	–	–	–	–	–	–
COc1cc([C@@H]2c3cc4c(cc3[C@@H](N=Cc3ccc(C(=O)O[C@@H](C(=O)O[C@H]5C[C@@]6(O)[C@@H](OC(=O)c7ccccc7)[C@@H]7[C@]8(OC(C)=O)CO[C@@H]8C[C@H](O)[C@@]7(C)C(=O)[C@H](OC(C)=O)C(=C5C)C6(C)C)[C@@H](NC(=O)c5ccccc5)c5ccccc5)cc3)[C@H]3COC(=O)[C@H]23)OCO4)cc(OC)c1O	> 50	> 47	> 50 µM	> 50	–	> 50 µM	> 50 µM	> 50	> 50 µM	–	–	–	–	–	–	–
C=C1C(=O)O[C@@H]2OC3(C)CCC4C(C)CCC1C42OO3 (some centres not stated)	5.95	24.7	16.7 µM and 12.7 µM	–	39.7 µM and 29.3 µM	16.2 µM and 11.7 µM	18.1 µM and 11.6 µM	–	14.1 µM and 12 µM	17.5 µM and 22.1 µM	4.71	4.13	24.5	3.47	4.56	4.57
CN1CCN(/C(N)=C(\C#N)C(=O)Nc2ccccc2)CC1	> 100	> 100	> 100 µM	–	> 100 µM	> 100 µM	–	–	> 100 µM	> 100 µM	–	–	–	–	–	–
Cc1ccc(C(=O)C2=CN=C3C(=O)N(c4ccccc4)N(C)C3(C)C2=N)cc1 (configuration not stated)	> 100	> 100	> 100 µM	> 100	> 100 µM	> 100 µM	–	> 100	> 100 µM	> 100 µM	–	–	–	–	–	–
COc1ccc(/C=N/n2cnc3c(c2=O)S/C(=C2/SC(=S)N(c4ccc(C)cc4)C2=O)N3c2ccccc2)cc1	> 10	> 100	> 100 µM	60.3	> 100 µM	> 100 µM	99.5 µM	> 100	–	> 100 µM	–	–	–	–	–	–
CC1(C)OCC(COC(=O)NCn2cc(-c3ccccc3)nn2)O1 (configuration not stated)	> 100	> 100	> 100 µM	> 100	> 100 µM	> 100 µM	> 100 µM	> 100	> 100 µM	–	–	–	–	–	–	–
C[C@]12CC[C@H](O)CC1=CC[C@@H]1[C@@H]2CC[C@]2(C)c3nc(Cl)ccc3C[C@@H]12	> 100	> 71.6	> 100 µM	> 100	> 100 µM	> 100 µM	> 75.7 µM	> 100	> 100 µM	–	–	–	–	–	–	–
Cc1cc2c(cc1-c1cc3c(cc1C)C(C(C)C)=C(O)C(=O)/C3=C\Nc1c(C)n(C)n(-c3ccccc3)c1=O)/C(=C/Nc1c(C)n(C)n(-c3ccccc3)c1=O)C(=O)C(O)=C2C(C)C	> 100	> 100	> 100 µM	> 100	> 100 µM	> 100 µM	> 100 µM	–	> 100 µM	> 100 µM	–	–	–	–	–	–
CC1=Nc2c(C#N)ncn2N=C(C)C1	> 100	–	> 100 µM	–	> 100 µM	–	> 100 µM	> 100	> 100 µM	> 100 µM	–	–	–	–	–	–
CC(C)(C)OC(=O)N1Cc2cc(O)ccc2C[C@H]1C(=O)O	> 100	> 100	> 100 µM	> 100	> 100 µM	> 100 µM	> 100 µM	> 100	> 100 µM	–	–	–	–	–	–	–
O=C(CCc1ccc(O)c(O)c1)NCCc1ccc(O)c(O)c1	–	> 100	> 100 µM	> 100	> 100 µM	32.4 µM	> 100 µM	> 100	> 100 µM	> 100 µM	–	–	–	–	–	–
CCOC(=O)C1=NN(c2ccc(Cl)cc2)C2=CC(C)=NN(C)C(=S)N21	50.4	81.9	> 100 µM	–	> 100 µM	> 100 µM	> 100 µM	62	> 100 µM	> 100 µM	–	–	–	–	–	–
